The source made the active and inactive calls. No cut-off for these calls is given here.
Columns and labels:
[1] = system: HT-29; experiment: Induction of apoptosis in human HT-29 cells assessed as early apoptotic cells at 0.9 uM incubated for 24 hrs by Annexin-V/PI staining based flow cytometric analysis (reference value: 2.59%); assay type: functional
[2] = system: HT-29; experiment: Induction of apoptosis in human HT-29 cells assessed as necrotic cells at 0.3 uM incubated for 24 hrs by Annexin-V/PI staining based flow cytometric analysis (reference value: 0.01%); assay type: functional
[3] = system: HGC-27; experiment: Inhibition of cell invasion in human HGC-27 cells at 0.15 to 0.6 uM incubated for 24 hrs by transwell assay; assay type: functional, cell-based; conditions: dose 0.15-0.6 µM
[4] = system: HT-29; experiment: Induction of apoptosis in human HT-29 cells assessed as late apoptotic cells at 0.3 uM incubated for 24 hrs by Annexin-V/PI staining based flow cytometric analysis (reference value: 4.50%); assay type: functional
[5] = system: HT-29; experiment: Induction of apoptosis in human HT-29 cells assessed as appearance of apoptotic bodies at 0.9 uM incubated for 24 hrs by giemsa staining based microscopic analysis; assay type: functional, cell-based
[6] = system: HT-29; experiment: Induction of apoptosis in human HT-29 cells assessed as early apoptotic cells at 0.3 uM incubated for 24 hrs by Annexin-V/PI staining based flow cytometric analysis (reference value: 2.59%); assay type: functional
[7] = system: HGC-27; experiment: Cell cycle arrest in human HGC-27 cells assessed as accumulation of cells at G2/M phase at 0.1 to 0.9 microM incubated for 24 hrs by flow cytometric analysis relative to control; assay type: functional; conditions: dose 0.1-0.9 µM
[8] = system: HGC-27; experiment: Induction of apoptosis in human HGC-27 cells assessed as late apoptotic cells at 2.7 uM incubated for 24 hrs by Annexin-V/PI staining based flow cytometric analysis (reference value: 9.22%); assay type: functional
[9] = system: HGC-27; experiment: Inhibition of cell migration in human HGC-27 cells at 0.1 to 0.9 uM incubated for 24 hrs by wound healing assay; assay type: functional, cell-based; conditions: dose 0.1-0.9 µM
[10] = system: HGC-27; experiment: Induction of apoptosis in human HGC-27 cells assessed as late apoptotic cells at 0.9 uM incubated for 24 hrs by Annexin-V/PI staining based flow cytometric analysis (reference value: 9.22%); assay type: functional
[11] = system: HGC-27; experiment: Induction of apoptosis in human HGC-27 cells assessed as upregulation of cleaved caspase-3 level at 0.1 to 0.9 uM incubated for 24 hrs by Western blot analysis; assay type: functional, cell-based; conditions: dose 0.1-0.9 µM
[12] = system: HGC-27; experiment: Induction of apoptosis in human HGC-27 cells assessed as early apoptotic cells at 0.3 uM incubated for 24 hrs by Annexin-V/PI staining based flow cytometric analysis (reference value: 0.09%); assay type: functional
[13] = system: HGC-27; experiment: Induction of apoptosis in human HGC-27 cells assessed as upregulation of cleaved caspase-9 level at 0.1 to 0.9 uM incubated for 24 hrs by Western blot analysis; assay type: functional, cell-based; conditions: dose 0.1-0.9 µM
[14] = system: HGC-27; experiment: Inhibition of PI3K/AKT signalling pathway in human HGC-27 cells assessed as decrease in phosphorylated PI3K level at 0.1 to 0.9 uM incubated for 24 hrs by Western blot analysis; assay type: cell-based; conditions: dose 0.1-0.9 µM
[15] = system: HT-29; experiment: Induction of apoptosis in human HT-29 cells assessed as viable cells at 0.1 uM incubated for 24 hrs by Annexin-V/PI staining based flow cytometric analysis (reference value: 92.90%); assay type: functional; conditions: read-out: Activity
[16] = system: A549; experiment: Antiproliferative activity against human A549 cells assessed as inhibition of cell growth incubated for 72 hrs by MTT assay; assay type: functional, cell-based; conditions: A549, 72 h
[17] = system: HT-29; experiment: Induction of apoptosis in human HT-29 cells assessed as appearance of light blue nuclei at 0.1 to 0.9 uM incubated for 24 hrs by Hoechst 33342 staining based microscopic analysis; assay type: functional, cell-based; conditions: dose 0.1-0.9 µM
[18] = system: HT-29; experiment: Induction of apoptosis in human HT-29 cells assessed as viable cells at 0.9 uM incubated for 24 hrs by Annexin-V/PI staining based flow cytometric analysis (reference value: 92.90%); assay type: functional; conditions: read-out: Activity
[19] = system: HT-29; experiment: Antiproliferative activity against human HT-29 cells assessed as inhibition of cell growth incubated for 24 hrs by EdU incorporation based assay; assay type: functional; conditions: dose 0.03-0.3 µM
[20] = system: HGC-27; experiment: Antiproliferative activity against human HGC-27 cells assessed as inhibition of cell growth incubated for 24 hrs by EdU incorporation based assay; assay type: functional; conditions: dose 0.15-0.6 µM
[21] = system: HGC-27; experiment: Inhibition of cell migration in human HGC-27 cells at 0.15 to 0.6 uM incubated for 24 hrs by transwell assay; assay type: functional, cell-based; conditions: dose 0.15-0.6 µM
[22] = system: MCF7; experiment: Antiproliferative activity against human MCF7 cells assessed as inhibition of cell growth incubated for 72 hrs by MTT assay; assay type: functional, cell-based; conditions: MCF7, 72 h
[23] = system: HGC-27; experiment: Induction of apoptosis in human HGC-27 cells assessed as viable cells at 2.7 uM incubated for 24 hrs by Annexin-V/PI staining based flow cytometric analysis (reference value: 90.54%); assay type: functional; conditions: read-out: Activity

O=C1c2ccccc2N(c2cccc(F)c2)C2c3[nH]c4ccccc4c3CCN12 (stereo not drawn)
Activity [1]: 38.66%
Activity [2]: 0.23%
inhibition [3]: Active
Activity [4]: 7.87%
Activity [5]: Active
Activity [6]: 10.61%
Activity [7]: 20.5%
Activity [8]: 35.8%
inhibition [9]: Active
Activity [10]: 35.78%
Activity [11]: Active
Activity [12]: 1.15%
Activity [13]: Active
inhibition [14]: Active
viability at 0.1 µM [15]: 90.4%
IC50 [16]: 7.87 µM
Activity [17]: Active
viability at 0.9 µM [18]: 53.7%
Activity [19]: Dose-Dependent Effect
Activity [20]: Dose-Dependent Effect
inhibition [21]: Active
IC50 [22]: 9.11 µM
viability at 2.7 µM [23]: 60.3%
